Results as given in patent publication US20230365563A1, “QUINAZOLINE COMPOUND AND APPLICATION THEREOF” (SHANGHAI PHARMACEUTICALS HOLDING CO., LTD., priority 2020, published 2023).
Counter-ions that a name gives are not always drawn.

Experiments:
KRAS_WT and SOS1 = target: T1, KRAS_WT and SOS1 (Homo sapiens, UniProt P01116); test: Inhibition of KRAS_WT/SOS1 binding (Cisbio binding kit, 665/615 ratio), Effect Embodiment C; conditions: read-out: GTP-KRAS-WT:SOS1 IC50
T1 construct: purchased
Procedure, shortened: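 Compounds tested as 3-fold, 11-point dilutions in duplicate at 1% DMSO final against the KRAS_WT/SOS1 binding system. IC50 derived by nonlinear regression fit.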

KRAS-G12D and SOS1 = target: T2, KRAS-G12D and SOS1 (Homo sapiens, UniProt P01116, G12D); test: Inhibition of KRAS-G12D/SOS1 binding (Cisbio binding kit, 665/615 ratio), Effect Embodiment A; conditions: read-out: GTP-KRAS-G12D:SOS1 IC50
T2 construct: purchased
T2 sequence (P01116 1-188 isoform P01116-2 G12D): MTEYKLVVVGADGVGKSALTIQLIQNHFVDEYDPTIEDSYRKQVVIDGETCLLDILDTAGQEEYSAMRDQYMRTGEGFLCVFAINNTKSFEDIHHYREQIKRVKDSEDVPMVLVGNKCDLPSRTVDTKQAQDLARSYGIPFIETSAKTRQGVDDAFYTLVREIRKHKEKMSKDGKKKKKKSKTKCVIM
Procedure, shortened: (§1)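 Compounds are tested over eleven threefold dilution steps in duplicate, with final DMSO at 1%.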

KRAS_G12D and cRAF = target: T3, KRAS_G12D and cRAF (Homo sapiens, UniProt P01116, G12D); test: Inhibition of KRAS_G12D/cRAF binding (Cisbio binding kit, 665/615 ratio), Effect Embodiment B; conditions: read-out: GTP-KRAS-G12D:CRAF IC50
T3 construct: purchased
T3 sequence (P01116 1-188 isoform P01116-2 G12D): as above
Procedure, shortened: as §1

T1 sequence (P01116 1-188 isoform P01116-2): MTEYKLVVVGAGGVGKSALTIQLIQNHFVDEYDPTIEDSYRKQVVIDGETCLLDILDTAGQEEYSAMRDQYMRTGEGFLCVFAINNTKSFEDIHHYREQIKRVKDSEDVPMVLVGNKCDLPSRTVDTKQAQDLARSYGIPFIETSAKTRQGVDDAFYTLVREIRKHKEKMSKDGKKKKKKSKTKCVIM

Row | Structure (SMILES) | IC50 (KRAS_WT and SOS1) [nM] | IC50 (KRAS-G12D and SOS1) [nM] | IC50 (KRAS_G12D and cRAF) [nM]
1 | Cc1cc2c(N3CC4CCC(C3)N4)nc(OCCCN(C)C)nc2c(F)c1-c1cc(O)cc2ccccc12 (single isomer, unassigned) [Compound 149a, 4-((R or S)-4-((1R,5S)-3,8-diazabicyclo[3.2.1]octan-3-yl)-2-(3-(dimethylamino)propoxy)-8-fluoro-6-methylquinazolin-7-yl)naphthalen-2-ol hydrochloride] | 854 | 39.6 | 96.9
2 | N=C(N)NCCCOc1nc(N2CC3CCC(C2)N3)c2cc(Cl)c(-c3cc(O)cc4ccccc34)c(F)c2n1 (single isomer, unassigned) [Compound 150, 1-(3-((4-((1R,5S)-3,8-diazabicyclo[3.2.1]octan-3-yl)-6-chloro-8-fluoro-7-((S or R)-3-hydroxynaphthalen-1-yl)quinazolin-2-yl)oxy)propyl)guanidine diformate] | 2040 | 39.2 | 114
3 | CN1CCC[C@H]1COc1nc(N2CCN(C(=O)CN)[C@@H](CC#N)C2)c2cc(Cl)c(-c3cc(O)cc4ccccc34)c(F)c2n1 (single isomer, unassigned) [Compound 155, 2-((S)-4-((S or R)-6-chloro-8-fluoro-7-(3-hydroxynaphthalen-1-yl)-2-((S)-1-methylpyrrolidine-2-yl)methoxy)quinazolin-4-yl)-1-glycylpiperazin-2-yl)acetonitrile ditrifluoroacetate] | 243 | 78.8 | 312
4 | CN1CCC[C@H]1COc1nc(N2CC3CCC(C2)N3)c2cc(F)c(-c3cc(O)cc4ccccc34)c(F)c2n1 (single isomer, unassigned) [Compound 160a, (R or S) 4-(4-((1R,5S)-3,8-diazabicyclo[3.2.1]octan-3-yl)-6,8-difluoro-2-((S)-1-methylpyrrolidin-2-yl)methoxy)quinazolin-7-yl)naphthalen-2-ol dihydrochloride] | 152 | 19.4 | 15.1
5 | Oc1cc(-c2c(Cl)cc3c(N4CC5CCC(C4)N5)nc(OC[C@@H]4CCCN4C4CC4)nc3c2F)c2ccccc2c1 (single isomer, unassigned) [Compound 163, 4-((R or S)-4-((1R,5S)-3,8-diazabicyclo[3.2.1]octan-3-yl)-6-chloro-2-((S)-1-cyclopropylpyrrolidin-2-yl)methoxy)-8-fluoroquinazolin-7-yl)naphthalen-2-ol dihydrochloride] | 787 | 18.6 | 49.8
6 | C[C@@H]1COC[C@@H](C)N1CCCOc1nc(N2C[C@H]3CC[C@@H](C2)N3)c2cc(Cl)c(-c3cc(O)cc4ccccc34)c(F)c2n1 (single isomer, unassigned) [Compound 164, (R or S)-4-(4-((1R,5S)-3,8-diazabicyclo[3.2.1]octan-3-yl)-6-chloro-2-(3-((3R,5R)-3,5-dimethylmorpholinyl)propoxy)-8-fluoroquinazolin-7-yl)naphthalen-2-ol dihydrochloride] | 2530 | 43.9 | 115
7 | Oc1cc(-c2c(Cl)cc3c(N4C[C@H]5CC[C@@H](C4)N5)nc(OCCCN4C[C@@H]5C[C@H]4CO5)nc3c2F)c2ccccc2c1 (single isomer, unassigned) [Compound 165, (R or S)-4-(2-(3-((1S,4S)-2-oxa-5-azabicyclo[2.2.1]heptan-5-yl)propoxy)-4-((1R,5S)-3,8-diazabicyclo[3.2.1]octan-3-yl)-6-chloro-8-fluoroquinazolin-7-yl)naphthalen-2-ol dihydrochloride] | 1880 | 27.8 | 85.4
8 | CO[C@@H]1C[C@@H](COc2nc(N3CC4CCC(C3)N4)c3cc(Cl)c(-c4cc(O)cc5ccccc45)c(F)c3n2)N(C)C1 (single isomer, unassigned) [Compound 166, (R or S)-4-(4-((1R,5S)-3,8-diazabicyclo[3.2.1]octan-3-yl)-6-chloro-8-fluoro-2-((2S,4R)-4-methoxy-1-methylpyrrolidin-2-yl)methoxy)quinazolin-7-yl)naphthalenol dihydrochloride] | 553 | 25 | 31.9
